Measurements taken from article PMC3639963, “A New Class of Small Molecule Inhibitor of BMP Signaling” (PLoS ONE, 2013).

Tests used:
Assay in all cases: Nanosyn kinase profiling
Format in all cases: biochemical
Details in all cases: read-out: Percentage inhibition; for inhibition at 0.1 µM: 0.1 µM inhibitor; for inhibition at 1 µM: 1 µM inhibitor
[1] = biological target: T1, CAMK1δ (Homo sapiens, UniProt Q8IU85)
T1 construct: purchased Nanosyn (enzymatic panel); SGC in-house recombinant human kinases (DSF panel); Invitrogen (ALK1-6)
How it was run: (§1)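 Percent inhibition of each kinase was measured with the inhibitor at 0.1 µM and at 1 µM, as part of a 200-kinase human selectivity panel.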

[2] = biological target: T2, CDK4/cycD (Homo sapiens, UniProt P11802)
T2 construct: purchased Nanosyn (enzymatic panel); SGC in-house recombinant human kinases (DSF panel); Invitrogen (ALK1-6)
How it was run: as §1

[3] = biological target: T3, CHEK2 (Homo sapiens, UniProt O96017)
T3 construct: purchased Nanosyn (enzymatic panel); SGC in-house recombinant human kinases (DSF panel); Invitrogen (ALK1-6)
How it was run: as §1

[4] = biological target: T4, CK1γ1 (Homo sapiens, UniProt Q9HCP0)
T4 construct: purchased Nanosyn (enzymatic panel); SGC in-house recombinant human kinases (DSF panel); Invitrogen (ALK1-6)
How it was run: as §1

[5] = biological target: T5, FGFR1 (Homo sapiens, UniProt P11362)
T5 construct: purchased Nanosyn (enzymatic panel); SGC in-house recombinant human kinases (DSF panel); Invitrogen (ALK1-6)
How it was run: as §1

[6] = biological target: T6, FGR (Homo sapiens, UniProt P09769)
T6 construct: purchased Nanosyn (enzymatic panel); SGC in-house recombinant human kinases (DSF panel); Invitrogen (ALK1-6)
How it was run: as §1

[7] = biological target: T7, HCK (Homo sapiens, UniProt P08631)
T7 construct: purchased Nanosyn (enzymatic panel); SGC in-house recombinant human kinases (DSF panel); Invitrogen (ALK1-6)
How it was run: as §1

[8] = biological target: T8, KDR (Homo sapiens, UniProt P35968)
T8 construct: purchased Nanosyn (enzymatic panel); SGC in-house recombinant human kinases (DSF panel); Invitrogen (ALK1-6)
How it was run: as §1

[9] = biological target: T9, MET (Homo sapiens, UniProt P08581)
T9 construct: purchased Nanosyn (enzymatic panel); SGC in-house recombinant human kinases (DSF panel); Invitrogen (ALK1-6)
How it was run: as §1

[10] = biological target: T10, MRCKβ (Homo sapiens, UniProt Q9Y5S2)
T10 construct: purchased Nanosyn (enzymatic panel); SGC in-house recombinant human kinases (DSF panel); Invitrogen (ALK1-6)
How it was run: as §1

[11] = biological target: T11, P38α (Homo sapiens, UniProt Q16539)
T11 construct: purchased Nanosyn (enzymatic panel); SGC in-house recombinant human kinases (DSF panel); Invitrogen (ALK1-6)
How it was run: as §1

[12] = biological target: T12, PDGFRα (Homo sapiens, UniProt P16234)
T12 construct: purchased Nanosyn (enzymatic panel); SGC in-house recombinant human kinases (DSF panel); Invitrogen (ALK1-6)
How it was run: as §1

[13] = biological target: T13, PDK1 (Homo sapiens, UniProt O15530)
T13 construct: purchased Nanosyn (enzymatic panel); SGC in-house recombinant human kinases (DSF panel); Invitrogen (ALK1-6)
T13 sequence (O15530 1-556): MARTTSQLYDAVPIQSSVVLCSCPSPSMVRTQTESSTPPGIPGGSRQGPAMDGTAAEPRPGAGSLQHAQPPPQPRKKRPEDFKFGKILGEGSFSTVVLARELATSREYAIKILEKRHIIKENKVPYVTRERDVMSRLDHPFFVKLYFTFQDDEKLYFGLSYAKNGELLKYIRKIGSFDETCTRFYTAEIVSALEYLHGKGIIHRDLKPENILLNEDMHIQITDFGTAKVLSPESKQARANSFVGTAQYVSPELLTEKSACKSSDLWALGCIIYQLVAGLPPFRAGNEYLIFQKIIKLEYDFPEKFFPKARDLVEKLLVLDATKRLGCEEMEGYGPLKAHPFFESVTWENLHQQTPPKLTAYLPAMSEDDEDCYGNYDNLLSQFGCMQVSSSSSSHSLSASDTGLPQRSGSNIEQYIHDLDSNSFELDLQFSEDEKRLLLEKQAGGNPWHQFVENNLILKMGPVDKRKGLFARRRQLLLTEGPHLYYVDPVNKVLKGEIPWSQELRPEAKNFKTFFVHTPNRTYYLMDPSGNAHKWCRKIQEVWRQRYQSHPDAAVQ
How it was run: as §1

[14] = biological target: T14, PI4-K-β (Homo sapiens, UniProt Q9UBF8)
T14 construct: purchased Nanosyn (enzymatic panel); SGC in-house recombinant human kinases (DSF panel); Invitrogen (ALK1-6)
How it was run: as §1

[15] = biological target: T15, PKA (Homo sapiens, UniProt P17612)
T15 construct: purchased Nanosyn (enzymatic panel); SGC in-house recombinant human kinases (DSF panel); Invitrogen (ALK1-6)
How it was run: as §1

[16] = biological target: T16, RSK1 (Homo sapiens, UniProt Q15418)
T16 construct: purchased Nanosyn (enzymatic panel); SGC in-house recombinant human kinases (DSF panel); Invitrogen (ALK1-6)
How it was run: as §1

[17] = biological target: T17, RSK4 (Homo sapiens, UniProt Q9UK32)
T17 construct: purchased Nanosyn (enzymatic panel); SGC in-house recombinant human kinases (DSF panel); Invitrogen (ALK1-6)
How it was run: as §1

[18] = biological target: T18, p38δ (Homo sapiens, UniProt O15264)
T18 construct: purchased Nanosyn (enzymatic panel); SGC in-house recombinant human kinases (DSF panel); Invitrogen (ALK1-6)
T18 sequence (O15264 1-365): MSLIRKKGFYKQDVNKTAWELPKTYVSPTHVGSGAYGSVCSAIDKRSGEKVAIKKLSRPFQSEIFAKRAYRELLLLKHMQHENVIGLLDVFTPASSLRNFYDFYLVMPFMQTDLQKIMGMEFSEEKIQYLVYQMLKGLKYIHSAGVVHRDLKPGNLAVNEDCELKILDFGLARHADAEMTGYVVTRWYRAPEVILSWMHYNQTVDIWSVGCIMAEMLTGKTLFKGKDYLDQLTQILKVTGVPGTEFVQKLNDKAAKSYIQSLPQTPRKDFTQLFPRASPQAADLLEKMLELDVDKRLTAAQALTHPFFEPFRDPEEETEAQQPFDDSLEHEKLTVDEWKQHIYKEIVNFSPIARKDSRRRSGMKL
How it was run: as §1

T7 sequence (P08631 whole entry): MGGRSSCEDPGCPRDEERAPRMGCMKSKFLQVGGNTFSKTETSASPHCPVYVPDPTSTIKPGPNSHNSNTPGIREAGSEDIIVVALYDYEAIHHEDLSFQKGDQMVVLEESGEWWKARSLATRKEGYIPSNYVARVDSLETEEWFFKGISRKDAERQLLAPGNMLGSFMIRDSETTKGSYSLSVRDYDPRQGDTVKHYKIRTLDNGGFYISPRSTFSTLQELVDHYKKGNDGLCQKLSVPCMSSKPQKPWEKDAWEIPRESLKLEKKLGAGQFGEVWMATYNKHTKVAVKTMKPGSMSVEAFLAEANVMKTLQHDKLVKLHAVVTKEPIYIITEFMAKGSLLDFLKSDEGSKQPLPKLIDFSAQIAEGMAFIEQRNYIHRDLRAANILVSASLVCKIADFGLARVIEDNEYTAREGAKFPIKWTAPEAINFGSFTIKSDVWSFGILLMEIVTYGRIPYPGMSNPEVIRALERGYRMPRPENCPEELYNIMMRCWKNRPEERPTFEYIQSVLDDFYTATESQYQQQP
T14 sequence (Q9UBF8 whole entry): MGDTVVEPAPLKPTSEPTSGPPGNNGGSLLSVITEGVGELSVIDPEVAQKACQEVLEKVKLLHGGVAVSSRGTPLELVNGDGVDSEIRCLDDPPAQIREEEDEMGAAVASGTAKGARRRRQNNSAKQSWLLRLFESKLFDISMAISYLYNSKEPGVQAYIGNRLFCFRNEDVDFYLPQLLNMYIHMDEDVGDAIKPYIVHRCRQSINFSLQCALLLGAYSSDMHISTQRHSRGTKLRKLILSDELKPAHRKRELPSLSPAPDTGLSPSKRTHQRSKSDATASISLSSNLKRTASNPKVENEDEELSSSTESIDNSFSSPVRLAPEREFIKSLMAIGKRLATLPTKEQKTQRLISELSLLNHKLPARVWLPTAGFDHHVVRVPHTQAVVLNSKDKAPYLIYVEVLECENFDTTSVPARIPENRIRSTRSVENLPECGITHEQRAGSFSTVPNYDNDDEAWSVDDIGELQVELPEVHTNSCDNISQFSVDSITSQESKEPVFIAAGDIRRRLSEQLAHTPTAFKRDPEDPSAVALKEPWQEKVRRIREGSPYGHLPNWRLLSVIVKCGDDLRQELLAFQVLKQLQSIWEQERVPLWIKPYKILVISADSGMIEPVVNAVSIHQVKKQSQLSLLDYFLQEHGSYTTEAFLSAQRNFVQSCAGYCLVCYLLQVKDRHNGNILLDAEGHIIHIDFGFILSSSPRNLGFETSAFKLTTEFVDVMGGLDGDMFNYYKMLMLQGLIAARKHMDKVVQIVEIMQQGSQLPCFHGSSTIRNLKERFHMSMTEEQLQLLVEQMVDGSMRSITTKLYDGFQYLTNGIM
T6 sequence (P09769 whole entry): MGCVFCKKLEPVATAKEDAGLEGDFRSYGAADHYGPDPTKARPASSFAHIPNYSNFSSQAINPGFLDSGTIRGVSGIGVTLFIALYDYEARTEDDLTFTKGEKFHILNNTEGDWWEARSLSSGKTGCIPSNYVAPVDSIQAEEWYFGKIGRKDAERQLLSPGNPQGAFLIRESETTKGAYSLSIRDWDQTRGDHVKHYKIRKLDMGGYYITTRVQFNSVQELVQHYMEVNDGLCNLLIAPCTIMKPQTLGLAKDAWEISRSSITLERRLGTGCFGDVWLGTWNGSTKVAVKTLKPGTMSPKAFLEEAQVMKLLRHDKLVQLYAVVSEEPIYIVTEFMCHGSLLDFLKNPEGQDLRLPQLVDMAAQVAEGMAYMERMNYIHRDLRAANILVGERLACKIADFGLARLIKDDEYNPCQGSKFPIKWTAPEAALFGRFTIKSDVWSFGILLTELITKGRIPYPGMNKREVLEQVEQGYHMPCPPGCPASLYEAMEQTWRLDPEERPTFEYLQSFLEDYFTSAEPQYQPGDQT
T9 sequence (P08581 25-1390): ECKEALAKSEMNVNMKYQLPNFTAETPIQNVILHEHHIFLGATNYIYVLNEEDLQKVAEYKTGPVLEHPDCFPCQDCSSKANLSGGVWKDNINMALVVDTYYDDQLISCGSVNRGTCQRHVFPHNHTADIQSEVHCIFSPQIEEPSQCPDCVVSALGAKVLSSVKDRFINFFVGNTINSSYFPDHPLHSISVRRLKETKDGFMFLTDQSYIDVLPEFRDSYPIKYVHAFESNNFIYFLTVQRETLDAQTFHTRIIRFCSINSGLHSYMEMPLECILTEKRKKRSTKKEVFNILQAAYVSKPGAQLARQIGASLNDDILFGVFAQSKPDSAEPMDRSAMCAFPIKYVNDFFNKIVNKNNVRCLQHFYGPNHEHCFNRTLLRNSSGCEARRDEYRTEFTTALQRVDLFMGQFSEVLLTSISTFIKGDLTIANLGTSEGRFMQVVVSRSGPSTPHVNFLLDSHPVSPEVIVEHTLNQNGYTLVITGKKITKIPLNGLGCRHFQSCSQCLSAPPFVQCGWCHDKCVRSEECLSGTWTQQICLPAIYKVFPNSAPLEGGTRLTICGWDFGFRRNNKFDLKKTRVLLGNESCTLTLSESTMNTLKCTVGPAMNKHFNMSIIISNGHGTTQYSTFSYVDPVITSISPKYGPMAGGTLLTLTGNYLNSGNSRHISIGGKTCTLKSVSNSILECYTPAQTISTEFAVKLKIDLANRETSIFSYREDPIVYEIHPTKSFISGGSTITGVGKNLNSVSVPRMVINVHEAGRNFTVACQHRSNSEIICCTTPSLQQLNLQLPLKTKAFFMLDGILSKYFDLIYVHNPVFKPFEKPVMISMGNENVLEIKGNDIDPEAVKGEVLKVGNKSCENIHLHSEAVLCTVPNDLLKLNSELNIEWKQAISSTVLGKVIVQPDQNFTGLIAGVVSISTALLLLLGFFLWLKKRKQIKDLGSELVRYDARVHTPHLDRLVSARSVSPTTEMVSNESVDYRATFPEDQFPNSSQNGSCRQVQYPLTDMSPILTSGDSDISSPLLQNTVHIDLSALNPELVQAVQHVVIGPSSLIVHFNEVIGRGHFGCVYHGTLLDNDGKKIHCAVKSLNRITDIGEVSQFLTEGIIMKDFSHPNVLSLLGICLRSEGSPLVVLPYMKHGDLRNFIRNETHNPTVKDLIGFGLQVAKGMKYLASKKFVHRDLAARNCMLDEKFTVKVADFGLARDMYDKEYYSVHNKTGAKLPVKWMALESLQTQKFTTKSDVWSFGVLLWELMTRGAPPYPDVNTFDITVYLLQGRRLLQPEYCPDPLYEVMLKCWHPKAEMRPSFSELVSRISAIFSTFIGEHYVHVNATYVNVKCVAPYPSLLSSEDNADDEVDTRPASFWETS
T11 sequence (Q16539 whole entry): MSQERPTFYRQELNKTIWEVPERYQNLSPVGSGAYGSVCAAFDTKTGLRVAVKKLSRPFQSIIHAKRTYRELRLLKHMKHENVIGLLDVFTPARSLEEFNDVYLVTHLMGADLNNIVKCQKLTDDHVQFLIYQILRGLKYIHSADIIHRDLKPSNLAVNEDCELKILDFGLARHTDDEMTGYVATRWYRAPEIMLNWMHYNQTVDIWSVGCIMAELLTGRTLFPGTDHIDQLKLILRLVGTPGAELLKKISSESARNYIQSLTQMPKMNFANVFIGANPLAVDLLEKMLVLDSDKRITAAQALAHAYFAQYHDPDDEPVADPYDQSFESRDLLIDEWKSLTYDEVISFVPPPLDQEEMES
T4 sequence (Q9HCP0 whole entry): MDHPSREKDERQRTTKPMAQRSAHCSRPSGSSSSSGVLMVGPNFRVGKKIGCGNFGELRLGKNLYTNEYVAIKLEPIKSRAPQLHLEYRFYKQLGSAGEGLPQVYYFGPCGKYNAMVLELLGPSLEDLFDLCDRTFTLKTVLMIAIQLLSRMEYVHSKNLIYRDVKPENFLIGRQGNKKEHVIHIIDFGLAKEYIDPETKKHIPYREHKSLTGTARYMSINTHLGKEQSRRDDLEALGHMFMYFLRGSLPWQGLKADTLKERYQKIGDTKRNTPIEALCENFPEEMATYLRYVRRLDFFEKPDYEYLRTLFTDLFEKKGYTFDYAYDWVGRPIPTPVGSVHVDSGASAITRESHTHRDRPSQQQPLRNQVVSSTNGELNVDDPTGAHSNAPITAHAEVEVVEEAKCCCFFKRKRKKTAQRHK
T16 sequence (Q15418 whole entry): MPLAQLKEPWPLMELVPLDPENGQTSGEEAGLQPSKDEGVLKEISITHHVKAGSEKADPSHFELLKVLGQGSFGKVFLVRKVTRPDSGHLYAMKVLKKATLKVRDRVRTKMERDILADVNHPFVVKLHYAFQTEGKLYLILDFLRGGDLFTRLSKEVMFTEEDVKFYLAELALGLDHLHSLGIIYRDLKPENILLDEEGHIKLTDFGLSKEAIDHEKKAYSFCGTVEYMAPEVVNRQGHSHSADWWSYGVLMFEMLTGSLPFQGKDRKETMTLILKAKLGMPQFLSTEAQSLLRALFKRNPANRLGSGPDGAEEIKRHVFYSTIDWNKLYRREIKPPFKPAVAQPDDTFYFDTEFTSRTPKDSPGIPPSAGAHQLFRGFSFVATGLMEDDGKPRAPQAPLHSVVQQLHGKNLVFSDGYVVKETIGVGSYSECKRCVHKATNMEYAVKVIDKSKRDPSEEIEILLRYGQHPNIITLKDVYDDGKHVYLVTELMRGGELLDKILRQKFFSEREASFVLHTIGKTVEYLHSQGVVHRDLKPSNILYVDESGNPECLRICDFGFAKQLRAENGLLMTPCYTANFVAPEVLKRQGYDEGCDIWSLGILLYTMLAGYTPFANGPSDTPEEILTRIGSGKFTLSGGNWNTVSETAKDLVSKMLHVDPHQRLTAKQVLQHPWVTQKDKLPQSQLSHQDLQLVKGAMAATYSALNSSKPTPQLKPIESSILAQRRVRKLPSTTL

| SMILES | inhibition at 0.1 µM [1] [%] | inhibition at 1 µM [1] [%] | inhibition at 0.1 µM [2] [%] | inhibition at 1 µM [2] [%] | inhibition at 0.1 µM [3] [%] | inhibition at 1 µM [3] [%] | inhibition at 0.1 µM [4] [%] | inhibition at 1 µM [4] [%] | inhibition at 0.1 µM [5] [%] | inhibition at 1 µM [5] [%] | inhibition at 0.1 µM [6] [%] | inhibition at 1 µM [6] [%] | inhibition at 0.1 µM [7] [%] | inhibition at 1 µM [7] [%] | inhibition at 0.1 µM [8] [%] | inhibition at 1 µM [8] [%] | inhibition at 0.1 µM [9] [%] | inhibition at 1 µM [9] [%] | inhibition at 0.1 µM [10] [%] | inhibition at 1 µM [10] [%] | further results |
| --- | --- | --- | --- | --- | --- | --- | --- | --- | --- | --- | --- | --- | --- | --- | --- | --- | --- | --- | --- | --- | --- |
| COc1cc(-c2cc(-c3cccc(O)c3)cnc2N)cc(OC)c1OC [K02288, 3-[6-amino-5-(3,4,5-trimethoxy-phenyl)-pyridin-3-yl]-phenol] | -2 | -1 | 0.1 | 1.3 | -1 | 2.5 | 0 | 6.1 | -1 | -3 | 6.7 | 37 | 8.9 | 51 | 0.5 | 3.9 | 0.6 | -2 | 0.6 | 2 | inhibition at 0.1 µM [11]: -3%; inhibition at 1 µM [11]: 1.5%; inhibition at 0.1 µM [12]: 5.3%; inhibition at 1 µM [12]: 37%; inhibition at 0.1 µM [13]: 0%; inhibition at 1 µM [13]: 0.5%; inhibition at 0.1 µM [14]: 0.8%; inhibition at 1 µM [14]: -4%; inhibition at 0.1 µM [15]: 0.3%; inhibition at 1 µM [15]: 6.1%; inhibition at 0.1 µM [16]: 0.8%; inhibition at 1 µM [16]: 1.8%; inhibition at 0.1 µM [17]: 0.1%; inhibition at 1 µM [17]: 1%; inhibition at 0.1 µM [18]: -3%; inhibition at 1 µM [18]: -3% |
| c1ccc2c(-c3cnn4cc(-c5ccc(N6CCNCC6)cc5)cnc34)ccnc2c1 [LDN-193189] | 0.8 | 0.9 | 0.8 | 8.3 | 1.5 | 2 | 3.1 | 14 | 3.4 | 19 | 13 | 53 | 9.7 | 33 | 19 | 69 | 6.2 | 8.4 | 0 | 2.1 | inhibition at 0.1 µM [11]: 4.4%; inhibition at 1 µM [11]: 3.3%; inhibition at 0.1 µM [12]: 18%; inhibition at 1 µM [12]: 56%; inhibition at 0.1 µM [13]: 1.1%; inhibition at 1 µM [13]: 1.9%; inhibition at 0.1 µM [14]: 3.5%; inhibition at 1 µM [14]: 5.8%; inhibition at 0.1 µM [15]: 1.4%; inhibition at 1 µM [15]: 2.1%; inhibition at 0.1 µM [16]: 0.6%; inhibition at 1 µM [16]: 8%; inhibition at 0.1 µM [17]: 0.8%; inhibition at 1 µM [17]: 3.8%; inhibition at 0.1 µM [18]: 1.8%; inhibition at 1 µM [18]: 0.5% |
